This is an account of results in ChEMBL document CHEMBL1134816, “Synthesis of 7,8-disubstituted benzolactam-V8 and its binding to protein kinase C” (Bioorg Med Chem Lett, 2001).

The pKi is −log10 of the Ki, conventionally taken in molar units.

For experiment [1], the target named is Protein kinase C alpha type (Homo sapiens, UniProt P17252). The experiment is described as follows: Displacement phorbol 12,13-dibutyrate(PDBU) binding from recombinant Protein kinase C alpha.
The target in experiment [2] is T1, Protein kinase C epsilon type (Homo sapiens, UniProt Q02156).
T1 sequence (Q02156 whole entry): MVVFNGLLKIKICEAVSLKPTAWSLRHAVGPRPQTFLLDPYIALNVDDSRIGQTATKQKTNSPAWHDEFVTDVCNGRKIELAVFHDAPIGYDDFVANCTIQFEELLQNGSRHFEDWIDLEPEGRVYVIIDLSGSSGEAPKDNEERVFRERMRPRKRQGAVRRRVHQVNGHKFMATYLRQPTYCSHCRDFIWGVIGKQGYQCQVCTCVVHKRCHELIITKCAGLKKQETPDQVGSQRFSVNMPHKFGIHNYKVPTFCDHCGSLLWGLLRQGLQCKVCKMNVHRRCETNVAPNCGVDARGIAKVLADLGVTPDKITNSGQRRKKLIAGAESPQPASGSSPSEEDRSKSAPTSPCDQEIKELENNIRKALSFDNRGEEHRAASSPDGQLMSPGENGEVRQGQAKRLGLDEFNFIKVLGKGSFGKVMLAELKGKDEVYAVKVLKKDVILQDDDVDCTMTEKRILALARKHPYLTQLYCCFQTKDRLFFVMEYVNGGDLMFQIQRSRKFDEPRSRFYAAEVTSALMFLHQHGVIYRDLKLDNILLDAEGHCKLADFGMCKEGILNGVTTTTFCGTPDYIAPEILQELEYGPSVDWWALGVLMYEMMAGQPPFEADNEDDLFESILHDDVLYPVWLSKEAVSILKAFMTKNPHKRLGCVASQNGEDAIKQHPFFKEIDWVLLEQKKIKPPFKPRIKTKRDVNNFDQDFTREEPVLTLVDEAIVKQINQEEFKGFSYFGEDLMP
The experiment is described as follows: Binding affinity for protein kinase C epsilon.

Experiment [3] has as its target Protein kinase C delta type (Homo sapiens, UniProt Q05655). The experiment is described as follows: Binding affinity for protein kinase C delta.

pKi: −log10 of the molar value.

Chain of Protein kinase C delta type (Q05655 whole entry): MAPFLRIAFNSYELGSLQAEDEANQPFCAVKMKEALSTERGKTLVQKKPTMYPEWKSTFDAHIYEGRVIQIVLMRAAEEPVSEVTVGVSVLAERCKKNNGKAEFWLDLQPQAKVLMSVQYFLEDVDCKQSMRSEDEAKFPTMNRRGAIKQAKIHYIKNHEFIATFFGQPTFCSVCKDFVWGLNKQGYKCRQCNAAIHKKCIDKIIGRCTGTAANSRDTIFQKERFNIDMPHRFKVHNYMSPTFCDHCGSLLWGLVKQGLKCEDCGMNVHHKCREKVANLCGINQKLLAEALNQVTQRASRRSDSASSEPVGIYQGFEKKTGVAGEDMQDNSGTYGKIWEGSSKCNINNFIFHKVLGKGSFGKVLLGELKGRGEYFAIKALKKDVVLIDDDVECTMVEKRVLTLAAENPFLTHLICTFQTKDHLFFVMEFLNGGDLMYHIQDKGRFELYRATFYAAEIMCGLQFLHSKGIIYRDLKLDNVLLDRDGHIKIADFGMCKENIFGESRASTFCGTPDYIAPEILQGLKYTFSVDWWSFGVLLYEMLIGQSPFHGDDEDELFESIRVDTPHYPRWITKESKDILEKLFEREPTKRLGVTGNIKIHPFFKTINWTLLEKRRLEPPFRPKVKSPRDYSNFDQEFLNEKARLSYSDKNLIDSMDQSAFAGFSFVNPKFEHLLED

With `COc1cccc2c1C[C@@H](CO)NC(=O)[C@H](C(C)C)N2C`, the pKi in experiment [1] was 5.14.
In the case of `CCCCCCCCC#Cc1ccc2c(c1OC)C[C@@H](CO)NC(=O)[C@H](C(C)C)N2C`, the pKi is 6.92 in experiment [2], 7.04 in experiment [3] and 7.34 in experiment [1].
